# Measurements from PMC5538626, “Structural and functional analysis of the GABARAP interaction motif (GIM)” (EMBO Reports, 2017).
# Ends that are not written are not given here.
# Key:
# [1] = target: T1, GABARAP-L2 (Homo sapiens, UniProt P60520); experiment: ITC titration of PLEKHM1-LIR peptide into GABARAP-L2; format: binding; conditions: 25°C, pH 7.0
# T1 construct: modified Ub-leader (ubiquitin fusion leader) (N); made in house; host or cells: E. coli NEB T7 Express
# Procedure: (§1) The genes for the truncated LC3A^2–121, LC3C^8–125, GABARAP^2–117 and GABARAP‐L1^2–117 proteins were cloned into pET30ΔSE vector between the BamHI and XhoI sites using previously established protocols 38. The chimeric constructs of the PLEKHM1‐LIR attached to the LC3A, GABARAP and GABARAP‐L1 proteins were prepared by inserting the oligonucleotide sequence corresponding to the PLEKHM1‐LIR peptide (P^629[…]^638) and glycine–serine linker into the BamHI site of the pET30ΔSE vector, placing the PLEKHM1‐LIR at the N‐terminal of the mature chimeric protein (similar to 31, 38). For the expression of human LC3 and GABARAP proteins for ITC and NMR experiments, plasmids with appropriate modified Ub‐leaders in pET vectors were used 39. Gene, encoding PLEKHM1‐LIR peptide, was ordered as synthetic oligonucleotides (Eurofins Genomics GmbH) and cloned into the pET39_Ub63_ vector 39 by NcoI–BamHI restriction sites. After TEV cleavage, the resulting peptide has the amino acid sequence GAMG‐P^629[…]^642, where the first four residues (GAMG) are the cloning artefact.
# (§2) The chimeric constructs were expressed as a His‐tag fusion protein in E. coli BL21(DE3) cells. The cells were induced with 0.3 mM IPTG at OD600 0.6 for 16 h at 26°C. The cell pellets were lysed using mechanical sonication in lysis buffer (20 mM Tris–HCl pH 9.0, 100 mM NaCl, 10 mM imidazole, supplemented with 0.1% Triton X‐100). The proteins were purified using Ni‐NTA beads (GE Healthcare) and the His‐tag was cleaved using thrombin (Invitrogen) at room temperature for 16 h. The last step was gel filtration chromatography using a Superdex S200/300 GL column (GE Healthcare). The proteins were concentrated using spin concentrators (Vivaspin). For ITC and NMR studies, the non‐labelled and stable isotopes labelled LC3 and GABARAP proteins were obtained based on the protocols described elsewhere 30, 39. Here, E. coli NEB T7 Express culture transformed with corresponding plasmids were grown till OD600 nm = 1.0 and protein expression was induced with 0.2 mM IPTG. The cultures were incubated at 25°C for 8–12 h before cell harvesting. Isolation and purification procedures were similar to those reported in Ref. 22, 40. Before experiments, all proteins and peptides were equilibrated with a buffer containing 50 mM Na2HPO4, 100 mM NaCl at pH 7.0, and supplied with 5 mM protease inhibitor cocktail.
# (§3) The protocol for preparation of non‐labelled and ^13C,^15N‐labelled PLEKHM1‐LIR peptide was slightly modified to achieve highest yield of the peptide. The 50 ml M9 culture was inoculated with NEB T7 cell transformed with pET39_Ub63‐PLEKHM1‐LIR plasmid and grown overnight at 37°. The collected cells were resuspended in 2 l of either LB or M9 media contained 1.5 g ^15N‐labelled NH4Cl and 3.0 g of ^13C‐labelled glucose. The cultures were grown at 37° till A(600 nm) = 0.9 and supplied with 1 mM of IPTG to induce Ub63‐PLEKHM1‐LIR overexpression (3 h at 37°). After that cells were harvested by centrifugation, re‐suspended in buffer contained 50 mM Tris–HCl pH = 7.9, 200 mM NaCl, 5% glycerol, 0.1 mg/ml DNase A and 4 mM protease inhibitor cocktail. After cell lysis by French press, debris was removed by centrifugation and clear supernatant was applied onto the column contained Ni‐NTA Sepharose equilibrated with the loading buffer (50 mM Tris–HCl pH = 7.9, 250 mM NaCl, 1% glycerol and 20 mM imidazole). Elution was performed with 400 mM imidazole in the same buffer. An aliquot of pure Ub63‐PLEKHM1‐LIR fractions was further purified by gel filtration on Superdex75 26 × 60 column for control ITC and analytical size exclusion chromatography experiments, remaining fusion protein was processed with the TEV‐protease and PLEKHM1‐LIR peptide was purified to 95% purity by reverse Ni‐NTA chromatography and followed gel filtration on Superdex75 26 × 60 column. Peak maximum of peptide was detected at […] (void volume 115 ml). Pure peptide was concentrated in Amicon concentrators with cut‐off of 3 kDa (> 95% retention). […]
# [2] = target: T2, LC3A (Homo sapiens, UniProt Q9H492); experiment: ITC titration of PLEKHM1-LIR peptide into LC3A; format: binding; conditions: 25°C, pH 7.0
# T2 construct: modified Ub-leader (ubiquitin fusion leader) (N); made in house; host or cells: E. coli NEB T7 Express
# Procedure: as §1, §2, §3
# [3] = VP-ITC, one-site model, 0.4 mM peptide into 0.020 mM protein, 50 mM Na2HPO4, 100 mM NaCl
# T1 sequence (P60520 whole entry, the tested form may be a part): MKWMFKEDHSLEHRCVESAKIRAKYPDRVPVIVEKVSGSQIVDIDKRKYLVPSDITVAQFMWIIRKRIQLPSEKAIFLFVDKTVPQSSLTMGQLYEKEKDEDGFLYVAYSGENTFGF
sequence,measurement,setting,value
GAMGPQQEDEWVNVQYPD [PLEKHM1‐LIR WT],ΔH,[1]; [3],-6.1 ± 0.1 kcal/mol
same,KA,[1],1.07 ± 0.03 ×10^6 M^−1
same,N (number of binding sites),[1],1.05 ± 0.01
same,ΔG,[1],-8.23 kcal/mol
same,ΔS,[1],+7.00 cal mol^−1 K^−1
same,−T × ΔS,[1],-2.09 kcal/mol
same,ΔH,[2]; [3],-7 ± 0.2 kcal/mol
same,KA,[2],0.24 ± 0.02 ×10^6 M^−1
same,N (number of binding sites),[2],0.98 ± 0.02
same,ΔG,[2],-7.33 kcal/mol
same,ΔS,[2],+1.17 cal mol^−1 K^−1
same,−T × ΔS,[2],-0.35 kcal/mol
